Reference: paper PMC9598311, “Identification of a Small Molecule That Inhibits the Interaction of LPS Transporters LptA and LptC” (Antibiotics, 2022)

T1: LptC (Escherichia coli, UniProt P0ADV9)
T1 construct: synthetic gene in pET-28a, N-terminal 6-His tag, expressed in E. coli BL21(DE3), His-Trap purified
T1 sequence (P0ADV9 1-191): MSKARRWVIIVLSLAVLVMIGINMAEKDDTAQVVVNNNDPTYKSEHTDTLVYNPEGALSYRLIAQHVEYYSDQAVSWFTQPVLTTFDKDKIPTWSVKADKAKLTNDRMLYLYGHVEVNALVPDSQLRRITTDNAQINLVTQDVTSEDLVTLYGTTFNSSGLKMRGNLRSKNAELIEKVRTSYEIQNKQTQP

T2: LptA (Escherichia coli, UniProt P0ADV1)
T2 construct: synthetic gene in pET-28a, N-terminal 6-His tag, expressed in E. coli BL21(DE3), His-Trap purified
T2 sequence (P0ADV1 28-185): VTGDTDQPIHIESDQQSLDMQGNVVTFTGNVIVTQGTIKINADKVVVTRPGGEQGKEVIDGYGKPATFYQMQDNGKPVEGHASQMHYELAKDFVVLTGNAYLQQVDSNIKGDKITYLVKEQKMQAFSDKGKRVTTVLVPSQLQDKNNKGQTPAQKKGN

T3: LptC protein with a 6-His tag at the N-terminal (Escherichia coli) (UniProt P0ADV9)
T3 sequence (P0ADV9 whole entry, looked up): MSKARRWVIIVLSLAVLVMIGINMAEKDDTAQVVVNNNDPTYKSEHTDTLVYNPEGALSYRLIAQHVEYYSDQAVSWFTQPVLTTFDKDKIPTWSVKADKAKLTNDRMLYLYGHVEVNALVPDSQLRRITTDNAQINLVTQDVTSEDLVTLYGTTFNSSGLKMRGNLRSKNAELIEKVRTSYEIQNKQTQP


Columns and labels:
LptC = target: T1, LptC; test: SPR, LptC immobilized on carboxymethyl dextran chip; format: binding
From the text: SPR, LptC immobilized on carboxymethyl dextran chip on LptC

LptA = target: T2, LptA; test: SPR, LptA immobilized on carboxymethyl dextran chip; format: binding
From the text: SPR, LptA immobilized on carboxymethyl dextran chip on LptA

LptA/LptC = test system: T4, LptA/LptC; test: SPR, LptA preincubated with compound passed over immobilized LptC; format: binding, Escherichia coli; details: inhibition of LptA/LptC protein-protein interaction; LptA 15 ug/mL, compound 0-4 ug/mL, PBST
T4 construct: complex formed on chip: LptC immobilized, LptA in solution; both N-terminal 6-His tagged, expressed in E. coli BL21(DE3)

[1] = target: T3, LptC protein with a 6-His tag at the N-terminal (Escherichia coli); test: SPR; Reichert SPR system; LptC immobilised on a mixed self-assembled monolayer (SAM) sensor chip; LptA 0.164 µM to 2.624 µM in PBST (0.01 M Na Phosphate, 0.15 M NaCl, 0.05% Tween 20) passed over; regeneration 1 M NaCl 90 s; TraceDrawer 1.7.1

Molecule	Kd (LptC) [µM]	Kd (LptA) [µM]	SPR, LptA preincubated with compound passed over immobilized LptC (LptA/LptC)	Kd [1] [µM]	koff [1] [s⁻¹]	kon [1] [M⁻¹ s⁻¹]
CN(C)c1ccc(/C=C/c2cc(C(C)(C)C)[o+]c(C(C)(C)C)c2)cc1 [IMB-0042]	32.6	4.67	Compound IMB-0042 blocked LptA/LptC interaction.			
LptA protein with a 6-His tag at the N-terminal (natural protein) VTGDTDQPIHIESDQQSLDMQGNVVTFTGNVIVTQGTIKINADKVVVTRPGGEQGKEVIDGYGKPATFYQMQDNGKPVEGHASQMHYELAKDFVVLTGNAYLQQVDSNIKGDKITYLVKEQKMQAFSDKGKRVTTVLVPSQLQDKNNKGQTPAQKKGN				2.28	0.385	169000
